Test results: paper PMC9944328 (Nature Communications, 2023)
Read-outs that look alike come from different tables or passages of the source.

How the values were obtained:
SSTR2 = SSTR2 (Homo sapiens, UniProt P30874); assay: Bystander BRET endosomal trafficking (β-arrestin 1-Nluc, FYVE-mVenus), HEK293 (SSTR2 wild-type); format: cell-based; design: The human full-length SSTRs and mutants were cloned into the pcDNA3.1+ vector; expressed in transfected cells; host or cells: HEK293; settings: best-fit value;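 note: HEK293 cells coexpressing Nluc-tagged β-arrestin 1 and mVenus-fused FYVE endosomal marker, bystander BRET ratio read after ligand addition, coelenterazine h substrate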;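 for Bottom: percent of maximal wild-type response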;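 for Span: percent of maximal wild-type response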;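 for Top: percent of maximal wild-type response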
Procedure: Wild-type or mutant SSTR2, β-arrestin 1-Nluc and FYVE-mVenus were co-transfected in HEK293 cells at a ratio of 1:0.5:4 on six-well plates. The next day, the transfected cells were plated on white 96-well and incubated overnight, and then cells were incubated with 90 µL HBSS containing 20 mM HEPES and coelenterazine h (5 µM) at room temperature for 40 min. After incubation, ligand was added and the signal was measured using the Synergy H1 microplate reader (BioTek) to determine a BRET ratio.

SSTR3 = target: T1, SSTR3 (Homo sapiens, UniProt P32745); assay: SSTRs Gi-mediated cAMP inhibition, GloSensor, HEK293 (SSTR3 wild-type); format: cell-based; design: Bottom / Top / Span / Top (best-fit): unit not given here
T1 construct: The human full-length SSTRs and mutants were cloned into the pcDNA3.1+ vector; expressed in transfected cells; host or cells: HEK293 (ATCC, CRL-1573)
Procedure: The levels of the intracellular 3′, 5′-cyclic AMP (cAMP) were measured by the GloSensor cAMP assay (Promega) as described in the previous studies[28],[41] which has been widely used. The human full-length SSTRs and mutants were cloned into the pcDNA3.1+ vector with a HA signal sequence followed by a Flag tag at the N-terminus. […] Cells were then co-transfected with SSTR wild-type or mutants and GloSensor plasmids. After 24 h of transfection, the cells were dissociated with TrypLE™ Express Enzyme (1X) (Thermo Fisher Scientific) and collected by centrifugation at 500 × g for 5 min. Then the collected cells were suspended in Hank’s balanced salt solution [HBSS (Thermo Fisher Scientific)] supplemented with […] potassium salt solution (YEASEN), and then the suspension cells were seeded into 96-well plates with 90 μl/well. After incubating at room temperature for 40 min, 5 μM forskolin and ligands diluted in HBSS were added to each well and the plates were incubated at room temperature for 15 min. […] signals were measured using the Synergy H1 microplate reader (BioTek) and the data presented are means of at least three independent experiments.

SSTR2 mutants = assay: SSTR2 internalization by ELISA, HEK293, 30 min 37 °C (mutants); format: cell-based, human; settings: I284ECL3A, K291A, N276A, F294A, Bystander BRET or confocal
Procedure: HEK293 cells were seeded into 96-well microplates at a density of 4 × 10^4 cells/well and cultured for 24 h at 37 °C with 5% CO2 and were transfected using the same procedure as the cAMP accumulation assay. The plates were washed with washing buffer (PBS) the day after transfection, and were fixed with 4% formalin at room temperature for 30 min. Cells were washed with washing buffer and blocked with PBS supplemented with 5% BSA for 1 h at room temperature. After that, cells were incubated with anti-Flag antibody (1:1000 diluted with PBS containing 5% BSA, Proteintech: 66008-4-Ig) for 1 h at room temperature. After 1 h incubation, cells were washed with washing buffer and incubating with HRP-conjugated secondary antibody for 2 h at room temperature. After incubating and washing, 50 μl of chromogenic solution was added to each well, and reacted at room temperature for 10 min, and then 0.5 M HCl were added to stop the reaction.
All data presented are means at least three independent experiments.

[1] = WT-3 (F265A, I284A, K291A blocks)
[2] = WT-3 of N276A block = WT-2 of F294A block
[3] = best-fit, SSTR3 WT-1 (F296D set)
[4] = best-fit, SSTR3 WT-1 (H192T set)
[5] = best-fit, SSTR3 WT-1 (M193I set)
[6] = best-fit, SSTR3 WT-1 (N101V set)
[7] = best-fit, SSTR3 WT-2 (F296D set)
[8] = best-fit, SSTR3 WT-2 (H192T set)
[9] = best-fit, SSTR3 WT-2 (M193I set)
[10] = best-fit, SSTR3 WT-2 (N101V set)
[11] = best-fit, SSTR3 WT-3 (F296D set)
[12] = best-fit, SSTR3 WT-3 (M193I set)
[13] = best-fit, SSTR3 WT-3 (N101V set)

T1 sequence (P32745 whole entry): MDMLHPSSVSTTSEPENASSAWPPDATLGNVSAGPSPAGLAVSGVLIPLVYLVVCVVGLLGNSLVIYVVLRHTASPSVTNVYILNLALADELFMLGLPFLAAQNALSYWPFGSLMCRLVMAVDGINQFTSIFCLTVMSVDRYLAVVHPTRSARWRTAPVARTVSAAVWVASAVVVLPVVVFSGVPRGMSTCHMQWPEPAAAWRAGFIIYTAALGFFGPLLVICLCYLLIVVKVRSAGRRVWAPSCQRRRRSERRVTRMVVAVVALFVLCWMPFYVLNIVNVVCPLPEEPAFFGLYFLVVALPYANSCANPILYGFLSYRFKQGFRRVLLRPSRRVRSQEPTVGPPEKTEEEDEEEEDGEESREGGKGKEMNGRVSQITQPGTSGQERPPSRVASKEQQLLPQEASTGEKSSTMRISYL
Sequence of SSTR2 (P30874 whole entry, the tested form may be a part): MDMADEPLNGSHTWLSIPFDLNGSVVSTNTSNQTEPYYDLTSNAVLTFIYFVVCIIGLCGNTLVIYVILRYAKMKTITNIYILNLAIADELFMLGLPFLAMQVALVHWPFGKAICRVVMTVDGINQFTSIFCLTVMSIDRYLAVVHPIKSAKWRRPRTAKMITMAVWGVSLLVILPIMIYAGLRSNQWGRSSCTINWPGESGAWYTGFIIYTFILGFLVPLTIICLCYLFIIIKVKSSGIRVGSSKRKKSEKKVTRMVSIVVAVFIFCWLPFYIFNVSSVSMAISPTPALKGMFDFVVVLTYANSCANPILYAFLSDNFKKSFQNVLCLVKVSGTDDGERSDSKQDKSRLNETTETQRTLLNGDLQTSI

N#Cc1cccc(-c2ccc3ncc(-c4cc(F)cc(F)c4)c(N4CCC(N)CC4)c3c2)c1O [paltusotine]
Bottom (SSTR2; [1]): -1.006
LogEC50 (SSTR2; [1]): -7.233
Span (SSTR2; [1]): 104.3
Top (SSTR2; [1]): 103.3
Bottom (SSTR2; [2]): -1.982
LogEC50 (SSTR2; [2]): -6.696
Span (SSTR2; [2]): 107.7
Top (SSTR2; [2]): 105.7
EC50 (SSTR3): 2.6 nM
Emax (SSTR3; HEK293, Suppl. Tables 4/5, SSTR3-WT, n=5): 36.7 ± 11.7%
Fold of WT (SSTR3; Suppl. Tables 4/5, SSTR3-WT): 1
EC50 (SSTR3; Suppl. Tables 4/5, SSTR3-WT, n=5, read-out: EC50): 63.8 ± 1.33 nM
Bottom (SSTR3; [3]): 7.289
LogEC50 (SSTR3; [3]): -5.765
Span (SSTR3; [3]): 89.66
Top (SSTR3; [3]): 96.95
Bottom (SSTR3; [4]): -24.33
LogEC50 (SSTR3; [4]): -7.352
Span (SSTR3; [4]): 140.2
Top (SSTR3; [4]): 115.9
EC50 (SSTR3; best-fit, SSTR3 WT-1 (H192T set), read-out: EC50): 44.5 nM
Bottom (SSTR3; [5]): 2.721
LogEC50 (SSTR3; [5]): -7.195
Span (SSTR3; [5]): 103.1
Top (SSTR3; [5]): 105.9
EC50 (SSTR3; best-fit, SSTR3 WT-1 (M193I set), read-out: EC50): 63.8 nM
Bottom (SSTR3; [6]): 2.721
LogEC50 (SSTR3; [6]): -7.195
Span (SSTR3; [6]): 103.1
Top (SSTR3; [6]): 105.9
EC50 (SSTR3; best-fit, SSTR3 WT-1 (N101V set), read-out: EC50): 63.8 nM
Bottom (SSTR3; [7]): 2.721
LogEC50 (SSTR3; [7]): -7.195
Span (SSTR3; [7]): 103.1
Top (SSTR3; [7]): 105.9
EC50 (SSTR3; best-fit, SSTR3 WT-2 (F296D set), read-out: EC50): 63.8 nM
Bottom (SSTR3; [8]): -19.9
LogEC50 (SSTR3; [8]): -7.557
Span (SSTR3; [8]): 137.3
Top (SSTR3; [8]): 117.4
EC50 (SSTR3; best-fit, SSTR3 WT-2 (H192T set), read-out: EC50): 27.7 nM
Bottom (SSTR3; [9]): -0.9229
LogEC50 (SSTR3; [9]): -7.198
Span (SSTR3; [9]): 106.7
Top (SSTR3; [9]): 105.8
EC50 (SSTR3; best-fit, SSTR3 WT-2 (M193I set), read-out: EC50): 63.4 nM
Bottom (SSTR3; [10]): -0.442
LogEC50 (SSTR3; [10]): -8.585
Span (SSTR3; [10]): 97.55
Top (SSTR3; [10]): 97.11
Bottom (SSTR3; [11]): -0.9229
LogEC50 (SSTR3; [11]): -7.198
Span (SSTR3; [11]): 106.7
Top (SSTR3; [11]): 105.8
EC50 (SSTR3; best-fit, SSTR3 WT-3 (F296D set), read-out: EC50): 63.4 nM
Bottom (SSTR3; [12]): -0.442
LogEC50 (SSTR3; [12]): -8.585
Span (SSTR3; [12]): 97.55
Top (SSTR3; [12]): 97.11
Bottom (SSTR3; [13]): -0.9229
LogEC50 (SSTR3; [13]): -7.198
Span (SSTR3; [13]): 106.7
Top (SSTR3; [13]): 105.8
EC50 (SSTR3; best-fit, SSTR3 WT-3 (N101V set), read-out: EC50): 63.4 nM
Internalization of mutants (SSTR2 mutants): slightly change in the internalization
